Experimental data published in PMC5641551, “Chemical Proteomics for Target Discovery of Head-to-Tail Cyclized Mini-Proteins” (Frontiers in Chemistry, 2017).
No end group written: not given here.

Tested on: GST-tagged 14-3-3β
Test: co-precipitation of GST-tagged 14-3-3β with cyclotide probe and competitors
Assay type: binding
Description: Splenocytes or Jurkat cells were lysed with 25 mM Tris-HCl pH 7.4, 40 mM KCl, 2.5 mM MgSO4 2.5 mM CaCl2, 2% (v/v) glycerol, 1 mM EDTA under repeated freeze-thaw cycles and 10 min sonification. All experiments were performed in buffer with 1x complete protease inhibitor cocktail (Hoffman-La Roche, Basel, Switzerland). Cell membranes and debris were pelleted for 30 min at 16,000 × g and the supernatant corresponds to the “soluble cell lysate.” Protein concentration was determined using a bicinchoninic acid assay kit (Thermo Scientific) and DTT (1 mM) was added to keep redox potential constant during binding experiments. Photo-affinity pull down samples were submitted to denaturing sodium dodecyl sulfate polyacrylamide gel electrophoresis (PAGE). For immunoblotting according to earlier published protocols (Gruber et al., [2007]; Bergmayr et al., [2013]) proteins were semi-dry transferred onto a nitrocellulose membrane 0.45 μM (Amersham Protran, GE Healthcare, Austria) using a Fast Semi-dry blotter (Bio-Rad) at 0.25 mA per gel for 1 h. Primary rabbit anti-GFP antibody (1:5,000) was from Invitrogen (A6455), rabbit anti-GST antibody (1:2,500) from Abcam (ab9085), and mouse anti-human calcineurin subunit A antibody (1:2,000) clone BE2.1 from eBioscience. Secondary ECL anti-mouse (NA931V) or ECL anti-rabbit (NA934VS) IgG antibodies (1:10,000) were conjugated with horse radish peroxidase (GE Healthcare). Chemo-luminescence signals were detected on an imaging system FluorChem HD2 (Alpha Innotech, CA, United States). For silver staining protein gels were treated immediately after electrophoresis with fixing solution EtOH/ddH2O/acetic acid 50/40/10% (v/v/v) for 20 min. Gels had to be washed acid free, first with 50% (v/v) EtOH for 10 min and with ddH2O for 2 h. Gels were exposed to sensitization buffer 0.025% Na2S2O3 in ddH2O for 3 min, followed by 2 min wash with ddH2O. Gels were silver loaded using a 0.15% AgNO3 solution for 45 min in the dark. The protein bands were stained in development buffer formaldehyde/Na2CO3 0.04/2% (v/w) under rigorous shaking. The reaction was quenched with 5% (v/v) acetic acid solution and the gels were stored until further processing in the stopping buffer at 4°C. Pixel quantification was carried out using ImageJ v1.47 (National Institute for Health).
Biotin-LC-LC-labeled (ThermoFisher) peptides (1–5 nmoles) with or without ([…]) were incubated with Jurkat cell or murine splenocyte cell lysates (150–500 μg proteins) for 2 h at 4°C in the presence of protease inhibitors. UV-activation of photo-crosslinking moiety benzophenone was induced by irradiation at 360 nm on ice for 15 min (Stratalinker, Stratagene, CA, United States). […]

What does the source list for “CGETCVGGTCNTPGCKCSWPVCTRNGLPV (also: bicyclic or more (positions not given here)) [[T20K]kB1, synthetic cyclotide drug candidate, Thr20 to Lys mutant of kalata B1]”?
binding to 14-3-3 family proteins (conclusion in words from competition co-precipitation): can bind to 14-3-3 family proteins; binding of probe [T20K,W23Bpa]kB1 to 14-3-3β in presence of competitor (immunoblot and far Western blot, 2 h at 4°C, competitors 150–500-fold molar excess): significantly altered
